Measured values from PMC9967275, “Screening the Pathogen Box to Discover and Characterize New Cruzain and TbrCatL Inhibitors” (Pathogens, 2023).

How the values were obtained:
TbrCatL = molecular target: T1, TbrCatL (Trypanosoma brucei rhodesiense, UniProt Q95PM0); test: TbrCatL enzymatic inhibition assay (cleavage of fluorogenic substrate Z-FR-AMC); type: biochemical; conditions: for TbrCatL 0’ Inhibition / TbrCatL 10’ Inhibition: sheet "Screening results"
T1 construct: Conor Caffrey (University of California San Diego)
Experimental: (§1) Allison Doak and Prof. Brian Shoichet (University of California San Francisco, San Francisco, CA, USA) and Prof. Conor Caffrey (University of California San Diego, San Diego, CA, USA) generously provided recombinant cruzain and TbrCatL, respectively. In vitro activity of proteases cruzain and TbrCatL was assayed as previously described. Briefly, enzyme activity was measured by monitoring the cleavage of the fluorogenic substrate […] (Z-FR-AMC) at 25 °C. Fluorescence was monitored at 340/440 nm (excitation/emission) over 5–7 min in a Synergy2 Biotek plate reader. […] DMSO and 1 μM E-64 were employed as negative and positive controls, respectively, in all assays. Two conditions were employed for both enzymes: 10′ pre-incubation of the enzyme in the presence of the compound (10′ inc) and no pre-incubation (0′). Reported values correspond to the mean and standard error of the mean (SEM) and all analyses were performed using GraphPad Prism 6.0.
(§2) For the initial screening, compounds were assayed at 5 μM. […] IC50 curves were obtained from a non-linear fit of at least seven distinct compound concentrations, in triplicate. Reported IC50 values are the mean and SEM of two independent measurements.

cruzain = cruzain (Trypanosoma cruzi, UniProt P25779); test: biochemical; conditions: for Cruzain 0’ Inhibition / Cruzain 10’ Inhibition: sheet "Screening results"
Experimental: as §1, §2

[1] = 0’ (no pre-incubation), sheet Screening results
[2] = 10’ (pre-incubation), sheet Screening results
[3] = 0’ (pre-incubation time), Pathogen Box screening results
[4] = 10’ (pre-incubation time), Pathogen Box screening results
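Note: at 5 µM compound concentration.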

T1 sequence (Q95PM0 entry or part of it): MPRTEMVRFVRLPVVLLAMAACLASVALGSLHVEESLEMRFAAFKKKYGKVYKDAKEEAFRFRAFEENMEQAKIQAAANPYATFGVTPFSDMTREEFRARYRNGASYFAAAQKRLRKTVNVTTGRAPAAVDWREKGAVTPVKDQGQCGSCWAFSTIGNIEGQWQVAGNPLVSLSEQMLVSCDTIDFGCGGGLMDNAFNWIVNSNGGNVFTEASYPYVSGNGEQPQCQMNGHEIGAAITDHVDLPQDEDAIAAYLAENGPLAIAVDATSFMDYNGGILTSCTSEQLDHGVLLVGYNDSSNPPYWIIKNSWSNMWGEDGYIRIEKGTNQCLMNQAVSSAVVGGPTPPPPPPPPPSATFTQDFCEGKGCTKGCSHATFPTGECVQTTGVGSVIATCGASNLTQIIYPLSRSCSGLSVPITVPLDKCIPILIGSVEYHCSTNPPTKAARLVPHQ
Chain of cruzain (P25779 123-337 limits assumed): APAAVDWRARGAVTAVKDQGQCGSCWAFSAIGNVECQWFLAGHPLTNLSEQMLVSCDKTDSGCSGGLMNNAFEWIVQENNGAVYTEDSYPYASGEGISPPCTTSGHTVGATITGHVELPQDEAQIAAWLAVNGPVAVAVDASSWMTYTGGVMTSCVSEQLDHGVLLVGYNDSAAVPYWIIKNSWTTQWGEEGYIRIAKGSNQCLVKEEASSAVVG

Row | SMILES | TbrCatL Inhibition 0’ (TbrCatL; [1]) [%] | TbrCatL Inhibition 10’ (TbrCatL; [2]) [%] | Cruzain Inhibition 0’ (cruzain; [1]) [%] | Cruzain Inhibition 10’ (cruzain; [2]) [%] | TbrCatL 0’ Inhibition (TbrCatL; 0’ (pre-incubation time)) [%] | TbrCatL 10’ Inhibition (TbrCatL; 10’ (pre-incubation time)) [%] | Cruzain 0’ Inhibition (cruzain; 0’ (pre-incubation time)) [%] | Cruzain 10’ Inhibition (cruzain; 10’ (pre-incubation time)) [%] | also measured
1 | Cc1ccccc1CN1CCC(O)(c2ccc(Cl)c(C(F)(F)F)c2)CC1 [MMV688846] | 2.5 | -17 | 10 | 3 | – | – | – | – | –
2 | CCCCS(=O)(=O)Nc1ccc2cnn(C)c2c1 [MMV687145] | -3 | -1.9 | -4.6 | -6 | – | – | – | – | –
3 | CC(=O)NC[C@H]1CN(c2ccc(N3CCSCC3)c(F)c2)C(=O)O1 [MMV688756] | 10 | 7 | 14 | 11 | – | – | – | – | –
4 | Nc1nccc2ccc(Oc3ccncc3)cc12 [MMV026313] | – | – | – | – | – | – | – | – | TbrCatL Inhibition 0’ (TbrCatL; [3]): 0.4%; TbrCatL Inhibition 10’ (TbrCatL; [4]): 19%; Cruzain Inhibition 0’ (cruzain; [3]): -0.8%; Cruzain Inhibition 10’ (cruzain; [4]): 8%
5 | CC(C)N=c1cc2n(-c3ccc(Cl)cc3)c3ccccc3nc-2cc1Nc1ccc(Cl)cc1 [MMV687800] | 1.1 | 3 | 23 | 10 | – | – | – | – | –
6 | FC(F)(F)c1ccc(N(c2cccnc2)C2CCN(c3ccc(C(F)(F)F)cn3)CC2)cc1 [MMV689243] | – | – | – | – | -9 | -5 | 2.3 | -3 | –
7 | CN1CCC(NCc2cccc(-c3ccc(S(=O)(=O)NCc4ccccc4)cc3)c2)CC1 [MMV022029] | – | – | – | – | -8 | 14 | -2.3 | 29 | –
8 | COc1ccccc1CNC(=O)c1cc(C2CC2)nc2c1cnn2C(C)C [MMV020517] | 2.7 | 9 | 4 | 7 | – | – | – | – | –
9 | COc1ccc(-c2cncc3ccc(C(=O)NCCCn4ccnc4)nc23)cc1 [MMV020670] | – | – | – | – | -3 | -13 | -2.2 | -17 | –
10 | OC[C@H]1O[C@@H](n2c3ccc(Cl)cc3c3c(-c4cc5ccccc5o4)ncnc32)C(O)[C@H]1O (stereo partly shown) [MMV688921] | – | – | – | – | 5.5 | 4.4 | 4.7 | 11 | –
11 | c1ccc(C[C@@H]2CN(c3nccc(Oc4ccc(-n5ccnc5)cc4)n3)CCN2)cc1 [MMV687749] | 6.4 | 5.6 | 14 | 13 | – | – | – | – | –
12 | O=C(Nc1ccc2c(c1)B(O)OC2)c1ccccc1C(F)(F)F [MMV652003] | -5.6 | -1.7 | 22 | 16 | – | – | – | – | –
13 | CCN(CC)C(=O)N1CCN(C)CC1 [MMV002816] | – | – | – | – | -0.5 | 0.1 | 2.5 | 1.9 | –
14 | O=C(CN1CCOCC1)Nc1ccc2ncnc(Nc3ccc(OCc4cccc(F)c4)c(Cl)c3)c2c1 [MMV688274] | – | – | – | – | 13 | 17 | 5.7 | 2.4 | –
15 | COc1cccc(-c2nc3c(N4CCCC4)cccc3n2CC2CCCN2)n1 (stereo not shown) [MMV687703] | – | – | – | – | 26 | 16 | 14 | 11 | –
16 | CCCCOC(=O)Nc1cc2[nH]c(C3CCCCC3)nc2cc1N1CCCC1 [MMV687730] | – | – | – | – | 19 | 12 | 12 | 4.4 | –
17 | CC(=O)NC[C@@H]1CN(c2ccc(N3CCOCC3)c(F)c2)C(=O)O1 [MMV687803] | 3.8 | -0.1 | -8 | -4 | – | – | – | – | –
18 | COc1ccc2nccc(NC(=O)C3CCN(CCc4ccc(Cl)cc4)CC3)c2n1 [MMV688844] | – | – | – | – | 4 | -1.5 | 1.4 | -1.1 | –
19 | c1ccc(-c2cc(N3CCCCC3)c3ccccc3n2)nc1 [MMV560185] | 4.5 | -2.4 | 5.5 | -4.5 | – | – | – | – | –
20 | Cc1cccc(-c2nc(Nc3ccncn3)c3sccc3n2)n1 [MMV688122] | 19 | -8 | -1.4 | -17 | – | – | – | – | –

Row | SMILES | TbrCatL Inhibition 0’ (TbrCatL; [1]) [%] | TbrCatL Inhibition 10’ (TbrCatL; [2]) [%] | Cruzain Inhibition 0’ (cruzain; [1]) [%] | Cruzain Inhibition 10’ (cruzain; [2]) [%] | TbrCatL 0’ Inhibition (TbrCatL; 0’ (pre-incubation time)) [%] | TbrCatL 10’ Inhibition (TbrCatL; 10’ (pre-incubation time)) [%] | Cruzain 0’ Inhibition (cruzain; 0’ (pre-incubation time)) [%] | Cruzain 10’ Inhibition (cruzain; 10’ (pre-incubation time)) [%] | also measured
21 | CS(=O)(=O)c1cccc(-c2cnc3[nH]cc(-c4ccc(CCC(=O)O)cc4)c3c2)c1 [MMV026020] | 15 | 20 | 12 | 17 | – | – | – | – | –
22 | CC(=O)Nc1ccc(-c2noc(CC3CCCN(Cc4cccc(F)c4C)C3)n2)cc1 (stereo not shown) [MMV689061] | 0 | 0.8 | 1.2 | 3.6 | – | – | – | – | –
23 | N#CCN(CCCCN1CCN(c2ccc(F)cc2)CC1)C(=O)OCc1ccccc1 [MMV675997] | 1.6 | 5 | 1.2 | 3.2 | – | – | – | – | –
24 | O=S(=O)(c1ccc(Cl)cc1)N1CCN(C(=S)NCc2ccco2)CC1 [MMV000858] | 0.9 | 6 | 8 | 13 | – | – | – | – | –
25 | CS(=O)(=O)N1CCC(Cn2nc(Cc3cccc4ccccc34)c3c(N)ncnc32)CC1 [MMV676050] | – | – | – | – | 0.1 | 3 | 0.2 | 8 | –
26 | c1cncc(NCc2ccc(-c3cc4ccncc4cc3OC3CCNCC3)s2)c1 [MMV023969] | – | – | – | – | 19 | 17 | 29 | 31 | –
27 | CC(c1cc(Cl)cc(Cl)c1)N(C)c1ncc2c(N)nc(N)nc2n1 (stereo not shown) [MMV689437] | – | – | – | – | -12 | 3.6 | -3 | 9 | –
28 | CCOc1ccc2cc(-c3nn(C(C)(C)C)c(N)c3C(N)=O)cnc2c1 [MMV688853] | 7 | -4 | 5.4 | 4 | – | – | – | – | –
29 | c1ccc(Oc2ccc(-c3cc(C4CCOCC4)[nH]n3)cc2)cc1 [MMV687762] | 17 | 12 | 9 | 7 | – | – | – | – | –
30 | CC1CC1C(=O)NC1CCN(CC2(c3ccccc3)CCCCC2)CC1 (stereo not shown) [MMV020120] | -2.3 | 3.8 | 1.3 | -0.5 | – | – | – | – | –
31 | c1ccc(Oc2ccc(-c3cc(CN4CCOCC4)[nH]n3)cc2)cc1 [MMV676161] | – | – | – | – | -3 | -2.5 | -1.3 | 1.7 | –
32 | COC(=O)c1ccc(F)cc1NS(=O)(=O)c1cccc(-c2cnn(Cc3ccccc3)c2)c1 [MMV688350] | 2 | -9 | -7 | -5 | – | – | – | – | –
33 | Cc1cc(OCC(=O)NCc2ccccc2)c2cc(Br)ccc2n1 [MMV687747] | 2 | -0.3 | 6.4 | 6 | – | – | – | – | –
34 | CC1=Nc2ccc(Cl)cc2C(c2ccccc2)N1CCNC(=O)CN(C)C (stereo not shown) [MMV688410] | – | – | – | – | -4.7 | -3.5 | -0.5 | 3.8 | –
35 | COc1ccc(OC)c(NCc2ccc3nc(N)nc(N)c3c2Cl)c1 [MMV675968] | – | – | – | – | 20 | 22 | 6.6 | 26 | –
36 | COc1cc(C2=NCCN2)ccc1-c1cn(-c2cccc(C3=NCCN3)c2)nn1 [MMV688407] | – | – | – | – | 14 | 36 | 2.2 | 21 | –
37 | NC(=O)c1cc(Br)ccc1OCCOc1ccccc1 [MMV687243] | -2.4 | -18 | 8 | 8 | – | – | – | – | –
38 | COc1ccc(CN2CCOc3ccc(C(C)(O)CN(C)C)cc3C2)cc1C (stereo not shown) [MMV008439] | -5 | -3.4 | 0.3 | 0 | – | – | – | – | –
39 | CCCS(=O)(=O)N1CCC(CO)(Cc2ccccc2C(F)(F)F)CC1 [MMV001059] | – | – | – | – | -3.7 | -0.8 | 0.9 | -1.3 | –
40 | CCc1nn(C)c(C(=O)NCc2ccc(Oc3ccc(C)cc3)cc2)c1Cl [MMV688934] | 18 | 14 | 15 | 7.4 | – | – | – | – | –
